Data as given in patent US6544727B1, “Methods and devices for the removal of psoralens from blood products” (Cerus Corporation, priority 1995, dated 2003).

Tests used:
[1] = tested on: platelets; assay: Platelet aggregation (ADP and collagen), aggregometer; format: cell-based, human; conditions: 100 μM compound, 5 Joules/cm^2, 5 days storage; FIG. 21B
Procedure: To measure the effects of the present compounds and methods of decontamination on platelet function using these four indicators, four samples were prepared for each compound tested, two control samples and two containing compound. Three units of human platelets were obtained from the Sacramento Blood Center, Sacramento, Calif. These were each transferred under sterile conditions to 50 ml centrifuge tubes, then aliquots of each unit were transferred into a second set of 50 ml sterile centrifuge tubes. To each centrifuge tube containing platelet concentrate (PC), an aliquot of compound stock was added to reach a final concentration of 100 μM of compound. […] The samples were pipetted gently up and down to mix. Then aliquots (either 3 ml or 8 ml) of each sample was transferred to two sterile Teflon™ Medi-bags™ (American Fluoroseal Co., Silver Springs, Md.) (presently owned by The West Company, Lionville, Pa.). Samples were treated in one of two different sized bags, having either 3 ml or 8 ml capacity. […] For each compound tested, two control samples without compound were prepared by again removing aliquots of platelet concentrate (17 ml if using an 8 ml bag, 4 ml if using a 3 ml bag) from the same one of the first set of 50 ml centrifuge tubes from which the compound sample was drawn, and dividing into Medibags, as before. […]

[2] = HPLC of residual S-59 and photoproducts after RD containing Dowex XUS-43493 (Table N); format: physicochemical
Procedure: […] The unbound photoproducts can be monitored and quantified using a standard HPLC assay.
Samples were prepared for HPLC analysis according to the general procedure described in Example 39, infra. Briefly, the assay involved an initial sample preparation which lyses the platelets and solubilizes the S-59 and photoproducts. The supernatant from the sample preparation was then analyzed on a C-18 reverse phase column with a gradient of increasing methanol in KH2PO4 buffer. The major peaks were detected by optical absorbance.
Following illumination with 3.0 J/cm^2 UVA of a PC to which 15.2 mg S-59 had been added, the treated PC was incubated with the RD (contained within a PL 2410 Plastic container, Baxter) for 8 hours. Samples of the treated PC were then taken and subjected to HPLC for detection of residual S-59 and S-59 photoproducts. […] The Limit of Quantitation (LOQ) for the HPLC assay was 0.3 μM S-59.
The data described above indicate that the levels of residual photoproducts D and E are higher than levels of residual S-59 even thought the initial levels of D and E in the illuminated PC were much lower than S-59. […] The PC was assayed for unbound photoproducts using the HPLC assay discussed above, which quantifies the photoproducts present both within the platelets and in the plasma/PAS III mixture. […]

[3] = tested on: platelets; assay: S-59 uptake by platelets and effect of pre-incubation on adsorption kinetics (Example 23); format: in vitro ADME, human; conditions: FIG. 25A
Procedure: As discussed previously, S-59 uptake by platelets can occur over a period of several hours before saturation occurs. FIG. 25A graphically depicts S-59 (Co=50 μM) uptake by platelets over time (top) and S-59 release by platelets over time (bottom). As shown in the top graph, S-59 equilibrium is achieved at approximately two hours.
This example is directed to the question of whether partitioning of S-59 into platelets has a significant effect on adsorption kinetics. The adsorption kinetics of PC pre-incubated with S-59 for 24 hours prior to adsorption were compared to adsorption kinetics in PC without a pre-incubation period. […] Samples of PC were removed at various time points and analyzed for levels of residual S-59.

[4] = tested on: Pseudomonas; assay: Bacterial inactivation, colony forming units; format: cell-based; conditions: 16 μM; 5 J/cm^2 irradiation; starting titer 6.5 logs
Procedure: The bacteria, a strain of Pseudomonas, was inoculated into LB with a sterile loop and grown overnight in a shaker at 37° C. Based on the approximation that one OD at 610 mn is equivalent to 5×10^8 colony forming units (cfu)/mL, a 1:10 dilution of the culture was measured on a spectrophotometer, (manufactured by Shimatsu). The bacterial culture was added to a solution of 15% fetal bovine serum in DMEM to a final bacteria concentration of approximately 10^6/mL. An aliquot (0.8 mL) was transferred to a 1.5 mL snap-top polyethylene tube. An aliquot (0.004-0.040 mL) of the test compound stock solution prepared in water, ethanol or dimethylsulfoxide at 0.80-8.0 mM was added to the tube. Compounds were tested at a concentration of 16 μM. The tubes were placed in a light device as described in EXAMPLE 1 and irradiated with 1.3 J/cm^2, 1.2 J/cm^2, and finally 2.5 J/cm^2, for a total of 5 J/cm^2. 150 μL were removed for testing after each pulse period. Sterile 13 mL dilution tubes were prepared; each test compound required one tube with 0.4 mL of LB broth and four tubes containing 0.5 mL of LB broth. […] The colony forming units were then counted the following morning and the titer of the phage remaining after phototreatment was calculated based on the dilution factors. […]

In the case of `Cc1oc2c(C)c3oc(=O)cc(C)c3cc2c1COCCN` [Compound 2, 4′-(4-amino-2-oxa)butyl-4,5′,8-trimethylpsoralen], the “reduction in platelet aggregation from the day 1 control” value [1] is reported as “approximately 8%”, the “Concentration Remaining (Average ± S.D.)” value ([2]; PC with 15.2 mg S-59, 3.0 J/cm^2 UVA, incubated 8 hours with RD containing Dowex XUS-43493, LOQ 0.3 μM) is reported as 270 ± 50 nM and the “initial 15.2 mg of S-59 removed from PCs” value ([2]; following illumination and incubation with the RD) is reported as “greater than 99%”. The “time to S-59 uptake equilibrium in platelets” value [3] was “approximately two”.

In the case of `Cc1oc2c(C)c3oc(=O)cc(C)c3cc2c1CN` [AMT, 4′-Aminomethyl-4,5′,8-trimethylpsoralen, reference compound], the “log kill of Pseudomonas” value [4] is reported as 5.2 logs.
